Test results taken from article PMC5349529, “Antagonizing effects of membrane-acting androgens on the eicosanoid receptor OXER1 in prostate cancer” (Scientific Reports, 2017).

Target: oxoeicosanoid receptor 1 (OXER1) (Homo sapiens, UniProt Q8TDS5)
Experiment: inhibition of forskolin-stimulated cAMP in CHO-K1 cells stably expressing human OXER1 (agonist); also displaces [3H]testosterone from DU-145 membranes
Format: cell-based

Sequence of oxoeicosanoid receptor 1 (OXER1) (Q8TDS5 whole entry): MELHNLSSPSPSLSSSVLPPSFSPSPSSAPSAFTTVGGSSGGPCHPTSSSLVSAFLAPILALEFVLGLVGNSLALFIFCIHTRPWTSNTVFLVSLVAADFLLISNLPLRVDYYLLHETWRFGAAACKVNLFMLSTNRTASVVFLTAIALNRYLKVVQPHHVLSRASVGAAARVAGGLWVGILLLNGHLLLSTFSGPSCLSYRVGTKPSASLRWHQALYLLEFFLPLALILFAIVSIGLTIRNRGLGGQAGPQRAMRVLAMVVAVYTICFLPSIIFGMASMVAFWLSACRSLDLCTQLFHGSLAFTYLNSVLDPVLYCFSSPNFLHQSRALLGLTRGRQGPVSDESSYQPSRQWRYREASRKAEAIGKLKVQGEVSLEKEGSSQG

## CCCCC/C=C\C/C=C\C/C=C\C=C\C(=O)CCCC(=O)O [5-oxoETE, 5-oxo-6E,8Z,11Z,14Z-eicosatetraenoic acid]
  IC50: ~2 nM
